Results on 19 compounds are retold here after ChEMBL document CHEMBL5543131, “Discovery of Highly Potent Solute Carrier 13 Member 5 (SLC13A5) Inhibitors for the Treatment of Hyperlipidemia” (J Med Chem, 2024).

Some results are limits rather than exact numbers.

Data set [1] has as its target Na(+)/citrate cotransporter (Homo sapiens, UniProt Q86YT5). Kind of data set: Inhibition of human SLC13A5 transfected in HEK293T cells incubated for 30 mins by D4-citrate uptake assay. Format: cell-based.
A short description of data set [2]: Cmax in Sprague-Dawley rat at 50 mg/kg, po measured after 24 hrs by LC-MS/MS analysis. Format: ADME, organism-based. To be noted: in vivo.
Data set [3] is described as follows: AUC (0 to infinity) in Sprague-Dawley rat at 50 mg/kg, po measured after 24 hrs by LC-MS/MS analysis. It is filed as ADME, organism-based. To be noted: in vivo.
A short description of data set [4]: Half-life in Sprague-Dawley rat at 50 mg/kg, po measured after 24 hrs by LC-MS/MS analysis. Format: ADME, organism-based. The note with it: in vivo.
Data set [5] is described as follows: Volume of distribution in Sprague-Dawley rat at 50 mg/kg, po measured after 24 hrs by LC-MS/MS analysis. Format: ADME, organism-based. To be noted: in vivo.
Data set [6] in a line: Oral bioavailability in Sprague-Dawley rat at 50 mg/kg measured after 24 hrs by LC-MS/MS analysis. To be noted: in vivo. Format: ADME, organism-based.
Data set [7] can be described thus: AUC (0 to infinity) in Sprague-Dawley rat at 5 mg/kg, iv measured after 24 hrs by LC-MS/MS analysis. Format: ADME, organism-based. The note with it: in vivo.
Data set [8] is described as follows: Half-life in Sprague-Dawley rat at 5 mg/kg, iv measured after 24 hrs by LC-MS/MS analysis. The note with it: in vivo. Format: ADME, organism-based.
Data set [9] is described as follows: Volume of distribution in Sprague-Dawley rat at 5 mg/kg, iv measured after 24 hrs by LC-MS/MS analysis. To be noted: in vivo. Format: ADME, organism-based.
A short description of data set [10]: Clearance in Sprague-Dawley rat at 5 mg/kg, iv measured after 24 hrs by LC-MS/MS analysis. Format: ADME, organism-based. To be noted: in vivo.
The nature of data set [11]: Clearance in Sprague-Dawley rat at 50 mg/kg, po measured after 24 hrs by LC-MS/MS analysis. To be noted: in vivo. It is filed as ADME, organism-based.
Data set [12] is described as follows: Metabolic stability in human plasma assessed as compound remaining measured after 2 hrs by LC-MS/MS analysis. It is filed as ADME, cell-free. To be noted: read-out: Stability.
Data set [13] can be described thus: Metabolic stability in rat liver microsome assessed as compound remaining measured after 2 hrs in presence of NADPH by LC-MS/MS analysis. It is filed as ADME. The note with it: liver microsomes, read-out: Stability. In general terms: Microsomes from liver hold many membrane-bound enzymes, among them those of drug oxidation.
Data set [14] can be described thus: Metabolic stability in human liver microsome assessed as compound remaining measured after 2 hrs in presence of NADPH by LC-MS/MS analysis. The note with it: microsomes. Format: ADME.
Data set [15] can be described thus: Drug accumulation in Sprague-Dawley rat liver at 5 mg/kg, po measured after 2 hrs by LC-MS/MS analysis. It is filed as ADME, organism-based. The note with it: in vivo.
A short description of data set [16]: Drug accumulation in Sprague-Dawley rat prostate gland at 5 mg/kg, po measured after 2 hrs by LC-MS/MS analysis. Format: ADME, organism-based. The note with it: in vivo.
Data set [17] in a line: Drug accumulation in Sprague-Dawley rat brain at 5 mg/kg, po measured after 2 hrs by LC-MS/MS analysis. Format: ADME, organism-based. The note with it: in vivo.
For the next data set, the system named is HepG2. Kind of data set: Cytotoxicity against human HepG2 cells. It is filed as toxicity, cell-based.
Another data set deals with Huh-7. In words: Cytotoxicity against human Huh-7 cells. It is filed as toxicity, cell-based.
Another data set relates to HEK-293T. In words: Cytotoxicity against HEK293T cells. To be noted: human. Format: toxicity, cell-based.
The nature of data set [18]: Tmax in Sprague-Dawley rat at 50 mg/kg, po measured after 24 hrs by LC-MS/MS analysis. The note with it: in vivo. It is filed as ADME, organism-based.
Data set [19] is described as follows: Toxicity in C57BL/6J mouse assessed as animal death at 100 mg/kg. It is filed as organism-based. The note with it: in vivo.
The nature of data set [20]: Acute toxicity in C57BL/6J mouse at 50 to 300 mg/kg measured after 7 days. Format: organism-based. To be noted: in vivo, 168 h, dose 50-300 mg/kg, time 7 day.

In general, IC50 refers to the concentration that inhibits the measured activity by half. Lower therefore signals greater potency in that assay. What is called Cmax is the maximum level reached in the sampled fluid or tissue. What is called AUC(0-inf) is the area under the concentration-time curve extrapolated to infinity. Read a high AUC(0-inf) as high exposure. The term half-life denotes the time in which the quantity being followed falls by half. One may read the bioavailability as the share of a dose that reaches the circulation, judged against a reference dose that is usually intravenous. What is called clearance is the rate of elimination divided by the concentration. In general, CL/F refers to clearance divided by bioavailability, as obtained after extravascular dosing. Broadly, the Tmax is the time from dosing to the highest level.

Na(+)/citrate cotransporter, sequence (Q86YT5 whole entry): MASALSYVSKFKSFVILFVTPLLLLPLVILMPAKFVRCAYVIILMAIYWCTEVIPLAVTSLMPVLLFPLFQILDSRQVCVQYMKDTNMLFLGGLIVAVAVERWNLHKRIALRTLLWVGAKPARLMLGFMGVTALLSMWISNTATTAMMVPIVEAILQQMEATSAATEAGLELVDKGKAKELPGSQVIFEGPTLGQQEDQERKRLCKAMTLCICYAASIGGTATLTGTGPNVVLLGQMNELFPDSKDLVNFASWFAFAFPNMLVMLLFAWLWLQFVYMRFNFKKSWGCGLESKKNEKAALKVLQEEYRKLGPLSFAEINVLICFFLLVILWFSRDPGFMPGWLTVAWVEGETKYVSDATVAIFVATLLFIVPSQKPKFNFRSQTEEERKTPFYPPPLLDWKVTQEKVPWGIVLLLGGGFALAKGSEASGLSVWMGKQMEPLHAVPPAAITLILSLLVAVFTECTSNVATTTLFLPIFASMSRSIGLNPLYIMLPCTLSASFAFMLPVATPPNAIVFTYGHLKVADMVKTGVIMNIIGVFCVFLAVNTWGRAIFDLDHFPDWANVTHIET

In the case of `COc1ccccc1-c1ccc(CCC(O)(CC(=O)O)C(=O)O)cc1` (stereo unspecified), half-maximal inhibition in data set [1] (IC50) required 0.29 µM.

Regarding `CC(C)(C)c1ccc(CC[C@@](O)(CC(=O)O)C(=O)O)cc1`, the concentration in [2] peaked (Cmax) at 1.36 µg/mL. Besides, the results for the AUC(0-inf) in data set [3] and in data set [7] were 10600 ng·h/mL and 40400 ng·h/mL, respectively. Also, the values for the half-life in data set [4] and in data set [8] were 12.4 h and 2.61 h, respectively. Further, the figures for the Vd in data set [5] and in [9] were 83.96 L/kg and 0.69 L/kg, respectively. Moreover, the bioavailability in [6] is 1.83%. This compound also gave a clearance in data set [10] of 2 mL/min/kg. Besides, the CL/F in [11] is 80.8 mL/min/kg.

For `O=C(O)CC(O)(CCc1ccc2ccccc2c1)C(=O)O` (stereo unspecified), in data set [1], inhibition was half-maximal at 0.073 µM (IC50). The remaining at 2 h in data set [12] and in data set [13] was greater than 60% each time.

Compound `O=C(O)CC(O)(CCc1ccc(-c2ccn[nH]2)cc1)C(=O)O` (stereo unspecified) showed an IC50 in data set [1] of 1.18 µM.

In the case of `CCn1nccc1-c1ccc(CCC(O)(CC(=O)O)C(=O)O)cc1` (stereo unspecified), the IC50 in [1] turned out to be 0.13 µM. Also, the remaining at 2 h in [12] and in [13] was greater than 60% each time.

On to `CCOc1cccc(-c2ccc(CCC(O)(CC(=O)O)C(=O)O)cc2)c1` (stereo unspecified), for which half-maximal inhibition in data set [1] (IC50) required 0.31 µM.

In the case of `COc1cccc(-c2ccc(CCC(O)(CC(=O)O)C(=O)O)cc2)c1` (stereo unspecified), the IC50 in data set [1] stood at 0.34 µM.

`O=C(O)CC(O)(CCc1ccc(-c2cccc(OC(F)(F)F)c2)cc1)C(=O)O` (stereo unspecified): 0.19 µM corresponded to half-maximal inhibition in data set [1] (IC50).

Compound `O=C(O)CC(O)(CCc1ccc(-c2ccccc2C(F)(F)F)cc1)C(=O)O` (stereo unspecified) gave an IC50 in data set [1] of 0.21 µM.

With `COc1cc(-c2ccc(CCC(O)(CC(=O)O)C(=O)O)cc2)ccn1` (stereo unspecified), 0.86 µM corresponded to half-maximal inhibition in [1] (IC50).

As to `O=C(O)CC(O)(CCc1ccc(-c2ccc3c(c2)OCO3)cc1)C(=O)O` (stereo unspecified), the IC50 in data set [1] worked out at 0.11 µM.

Regarding `O=C(O)CC(O)(CCc1ccc(N2CCOCC2)cc1)C(=O)O` (stereo unspecified), half-maximal inhibition in [1] (IC50) required 0.86 µM.

For `CC(C)Oc1cccc(-c2ccc(CCC(O)(CC(=O)O)C(=O)O)cc2)c1` (stereo unspecified), the IC50 in data set [1] came out at 0.44 µM.

On to `O=C(O)CC(O)(CCc1nc2ccccc2s1)C(=O)O` (stereo unspecified), for which the IC50 in data set [1] was 0.16 µM. Further, the remaining at 2 h in [12] and in [13] was greater than 60% throughout.

In data set [1], `O=C(O)CC(O)(CCc1ccc(-c2ccccc2)cc1)C(=O)O` (stereo unspecified) displayed an IC50 of 0.067 µM. Further, the remaining at 2 h in [12] and in [13] was greater than 60% in each case. Also, the Stability entry in data set [14] was “Stable”. Further, the Drug uptake entry in [15] is listed as “Active”; in data set [16], “Active”; in data set [17], “Not Active”. Besides, the Activity result (with HepG2; with Huh-7; in the data set with HEK-293T; in data set [19]; in data set [20]) was “Non-Toxic” each time. In data set [2], the highest level (Cmax) was 288 µg/mL. In addition, the AUC(0-inf) in data set [3] amounted to 705000 ng·h/mL; in [7] it was 145000 ng·h/mL. In addition, the half-life in data set [4] was 1.09 h; in [8] it was 0.69 h. Further, the Vd amounted to 0.11 L/kg in [5] and 0.03 L/kg in [9]. The same compound gave a bioavailability in data set [6] of 48.7%. The clearance in [10] was 0.667 mL/min/kg. This compound gave a CL/F in data set [11] of 1.17 mL/min/kg. Also, in [18], the Tmax was 0.76 h.

In data set [1], `Cn1nccc1-c1ccc(CCC(O)(CC(=O)O)C(=O)O)cc1` (stereo unspecified) gave an IC50 of 1.97 µM.

In the case of `O=C(O)CC(O)(CCc1ccc(-c2cccc3c2NCCC3)cc1)C(=O)O` (stereo unspecified), in [1], the IC50 is 0.35 µM.

In data set [1], `CCCOc1cccc(-c2ccc(CCC(O)(CC(=O)O)C(=O)O)cc2)c1` (stereo unspecified) showed an IC50 of 0.27 µM.

Turning to `O=C(O)CC(O)(CCc1ccc(-c2cccc(C(F)(F)F)c2)cc1)C(=O)O` (stereo unspecified), in [1], half-maximal inhibition (IC50) was put at 0.15 µM.
